Key:
[1] = target: T1, glucocorticoid receptor (GR) (Homo sapiens, UniProt P04150); assay: binding to the glucocorticoid receptor (recombinant receptor, cytosol of baculovirus-infected Sf9 cells)
T1 construct: made in house; host or cells: Sf9 insect cells infected with recombinant baculovirus; cytosol preparation
T1 sequence (P04150 1-777): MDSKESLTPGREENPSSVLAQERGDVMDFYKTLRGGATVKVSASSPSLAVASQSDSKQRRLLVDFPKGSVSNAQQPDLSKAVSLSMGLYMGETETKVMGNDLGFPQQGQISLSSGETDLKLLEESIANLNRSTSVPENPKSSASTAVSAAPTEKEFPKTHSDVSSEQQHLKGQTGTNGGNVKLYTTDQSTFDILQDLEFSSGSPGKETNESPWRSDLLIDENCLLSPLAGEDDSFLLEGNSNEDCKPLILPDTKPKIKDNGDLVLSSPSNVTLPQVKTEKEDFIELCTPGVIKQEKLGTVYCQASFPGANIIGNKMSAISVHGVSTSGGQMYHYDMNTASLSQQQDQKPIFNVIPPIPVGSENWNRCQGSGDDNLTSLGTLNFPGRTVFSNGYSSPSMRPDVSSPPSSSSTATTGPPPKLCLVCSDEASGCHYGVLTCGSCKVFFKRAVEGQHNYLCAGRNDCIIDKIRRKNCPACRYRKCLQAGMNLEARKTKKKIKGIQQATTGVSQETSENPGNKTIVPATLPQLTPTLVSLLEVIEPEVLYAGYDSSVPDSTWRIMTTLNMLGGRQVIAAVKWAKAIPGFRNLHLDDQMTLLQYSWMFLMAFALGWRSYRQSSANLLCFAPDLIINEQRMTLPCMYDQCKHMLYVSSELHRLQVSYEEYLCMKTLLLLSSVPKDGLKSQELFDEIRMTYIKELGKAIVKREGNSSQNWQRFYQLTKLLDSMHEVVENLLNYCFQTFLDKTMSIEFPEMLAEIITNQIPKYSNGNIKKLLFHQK
Text: The binding of the substances to the glucocorticoid receptor (GR) and other steroid hormone receptors (mineral corticoid receptor (MR), progesterone receptor (PR) and androgen receptor (AR)) is examined with the aid of recombinantly produced receptors. Cytosol preparations of Sf9 cells, which had been infected with recombinant baculoviruses, which code for the GR, are used for the binding studies.

[2] = test system: cytokine IL-8 secretion, human monocyte cell line THP-1; assay: inhibition of LPS-triggered IL-8 secretion in THP-1 cells (ELISA); format: cell-based; details: in comparison with dexamethasone as reference
Procedure: The concentration of the cytokines was determined in the supernatant by means of commercially available ELISA kits.

IC50 [1]: 6.3 nM
Compound: COCC(O)(C(Nc1cc(F)cc2c1ccc(=O)n2-c1ccc(F)nc1)c1ccc(OC)c(F)c1Cl)C(F)(F)F (centres unmarked) [Example 2, 5-{[1-(2-Chloro-3-fluoro-4-methoxyphenyl)-3,3,3-trifluoro-2-hydroxy-2-(methoxymethyl)propyl]amino}-7-fluoro-1-(6-fluoropyridin-3-yl)-1H quinolin-2-one]
efficacy of IL-8 inhibition [2]: 107%

Source: US20100016338A1, “5-[(3,3,3-Trifluoro-2-hydroxy-1-arylpropyl)amino]-1-arylquinolin-2-ones, a Process for their Production and their Use as Anti-inflammatory Agents” (BAYER SCHERING PHARMA AKTIENGESELLSCHAFT, priority 2008, published 2010)
